Paper PMC11220700, “Activation and Purification of ß‐Glucocerebrosidase by Exploiting its Transporter LIMP‐2 – Implications for Novel Treatment Strategies in Gaucher's and Parkinson's Disease” (Advanced Science, 2024)
“Also recorded” adds a separate entry of the source. No end group written: not given here.

What was measured:
[1] = test system: Parkinson's disease progression; conditions: ClinicalTrials.gov ID NCT02906020; cited from earlier work
Source text: In the context of diseases, where lysosomal GCase activity is reduced, activation of either impaired mutated GCase or residual wt GCase could provide a therapeutic strategy for restoring lysosomal function. Both in GBA1‐associated and in GBA1‐wt PD models and patients, ongoing preclinical and clinical studies are already exploring this possibility, predominantly at the stage of screening for GCase activators for the treatment of Gaucher and Parkinson's disease.^[ [57], [58] ^] Despite the expected increase of the prevalence of PD and worldwide disease burden due to increasing life expectancy a ...

[2] = test system: recombinant GCase (Cerezyme/imiglucerase); experiment: 4MU GCase activity assay with recombinant enzyme Cerezyme/imiglucerase; assay type: biochemical; conditions: varying peptide concentrations, 4MU substrate, detergent‐free, n = 3
Description: Activity of GCase‐containing samples (recombinant protein, cell lysate, LE fractions, conditioned culture medium) was measured using the synthetic substrate 4‐methylumbelliferyl‐β‐D‐glucopyranoside (4MU, Merck Millipore, Billerica, MA, United States, #M3633). […] of the sample (cell supernatant, SEC fractions) or 2.5 µg of total protein from whole‐cell lysates were added to the well of a black 96‐well Maxisorp plate (ThermoFisher Scientific Inc., Waltham, MA, United States, #437 111). The reaction volume was then increased to 100 µL with GCase activity buffer (see paragraph “Cell Lysis”) and a final concentration of 1 µM of 4MU substrate was added. After incubation at 37 °C for 30 min, the reaction was stopped by adding 100 µL of stop solution (0.1 M glycine, pH 10.4). GCase activity was quantified via fluorescence of released 4‐methylumbelliferone (endpoint measurement) using an Infinite 200 Pro (TECAN, Männedorf, Switzerland), SpectraMax Gemini (Molecular Devices, San José, CA, United States) or ClarioStar (BMG LABTECH, Ortenberg, Germany) multiplate reader (λ ex: 365 nm; λ em: 445 nm).
For all activity assays in the presence of recombinant LIMP‐2 or synthetic peptides, sodium taurocholate, and Triton X‐100 were omitted from the reaction to not hinder protein–protein interaction. […]

[3] = test system: lysosomal GCase in primary human fibroblasts (CTRL‐2, PD‐1, PD‐2); experiment: Live cell measurement of lysosomal GCase activity (PFB‐Gluc); assay type: cell-based; conditions: 10 µM peptide, 48 h, area between curves (total minus bafilomycin), n = 3
Description: GCase activity inside the lysosomes of living cells was measured via the fluorescent probe PFB‐Gluc (ThermoFisher Scientific Inc., Waltham, MA, United States, #P11947). The experimental procedure was adapted from Cuddy and Mazzulli.^[ [72] ^] Primary human fibroblasts were seeded at 20 000 cells per well on a black 96‐well cell culture dish with transparent bottom (Corning, Corning, NY, United States, #3603). For each replicate, two wells were seeded. […] The next day, the medium was changed again to 50 µL of fresh media containing treatment. On day 3, one of the two‐seeded wells for each replicate (control well) was treated with 200 nM bafilomycin 1A (Baf, Santa Cruz Biotechnology, Dallas, TX, United States, #sc‐201550A) for 1 h to inhibit lysosomal enzyme activity. […] Immediately after, the first fluorescence measurement was taken (PFB‐Gluc: λ ex: 485 nm; λ em: 538 nm; cutoff: 495 nm). The cells were kept at 37 °C and measured every 30 min for a total of 180 min. […]
For data evaluation, PFB‐Gluc measurements over time were baseline‐corrected and then normalized per well to the respective CellTag 700 signal (cell volume). Replicates were arranged in an XY diagram with their respective Baf control and the AUC for both curves was calculated. Lysosomal activity was then calculated by subtracting the baf control (non‐lysosomal activity) AUC from the non‐inhibited AUC (total activity).

[4] = Precipitation / solubility of peptide in assay buffers; assay type: physicochemical; conditions: lysosomal pH 5.0, higher concentrations
Description: Activity of GCase‐containing samples (recombinant protein, cell lysate, LE fractions, conditioned culture medium) was measured using the synthetic substrate 4‐methylumbelliferyl‐β‐D‐glucopyranoside (4MU, Merck Millipore, Billerica, MA, United States, #M3633). […] of the sample (cell supernatant, SEC fractions) or 2.5 µg of total protein from whole‐cell lysates were added to the well of a black 96‐well Maxisorp plate (ThermoFisher Scientific Inc., Waltham, MA, United States, #437 111). The reaction volume was then increased to 100 µL with GCase activity buffer (see paragraph “Cell Lysis”) and a final concentration of 1 µM of 4MU substrate was added. […] GCase activity was quantified via fluorescence of released 4‐methylumbelliferone (endpoint measurement) using an Infinite 200 Pro (TECAN, Männedorf, Switzerland), SpectraMax Gemini (Molecular Devices, San José, CA, United States) or ClarioStar (BMG LABTECH, Ortenberg, Germany) multiplate reader (λ ex: 365 nm; λ em: 445 nm). […]
For interaction of GCase with L2H5‐wt peptide, recombinant GCase was produced in‐house (see paragraph “Expression and Purification of His‐tagged GCase‐wt Protein”) and labeled as described for Cerezyme. […] For each replicate, a twofold dilution series of 16 samples was measured, starting at 125 µM ligand (L2H5‐wt) concentration. […]

[5] = test system: primary human fibroblasts (CTRL‐2, PD‐1, PD‐2); experiment: Toxicity assessment via LDH release; assay type: cell-based
Description: Primary human fibroblasts were seeded on a 96‐well plate at 3 × 10^4 cells per well. The next day, the medium was replaced with a 50 µL fresh fibroblast medium containing various concentrations of L2H5‐wt peptide (0–20 µM). The cells were incubated for 72 h before the conditioned medium was harvested. LDH release to the cell medium as a marker for cell death was measured using a CyQuant LDH Cytotoxicity Assay Kit (Invitrogen, Waltham, MA, United States #C20300) following the manufacturer's instructions. For each condition, three wells were seeded and measured as triplicates. A480 and […] absorption values were measured using a ClarioStar (BMG LABTECH, Ortenberg, Germany) multiplate reader. LDH enzyme activity was determined by calculating the difference between A480 and A690 values for each well.

HEK 293T cells = conditions: 5 µM L2H5‐wt, LC‐MS/MS
Description: HEK 293T cells were seeded on 10 cm dishes. When confluence was reached, the cells were treated with 5 µM of L2H5‐wt for 2 and 24 h before harvesting. LE fractions were generated as described before (see “Expression and enrichment of lysosomes from HEK 293T cells”). Proteome analysis was performed as described in the following:
The LE fractions were processed using the single‐pot, solid‐phase‐enhanced sample‐preparation (SP3) approach.^[ [74] ^] The proteins were then digested using trypsin overnight at 37 °C. The resultant peptide solution was purified by solid phase extraction in C18 StageTips.^[ [75] ^]
Samples were analyzed using an Orbitrap Exploris 480 mass spectrometer (Thermo Fisher Scientific, Waltham, MA, United States) coupled to an EASY‐nLC 1200 UHPLC system (Thermo Fisher Scientific, Waltham, MA, United States). Peptides were separated in an in‐house packed 60‐cm analytical column (inner diameter: 75 µm; ReproSil‐Pur 120 C18‐AQ 1.9‐µm silica particles, Dr. Maisch, Ammerbuch, Germany) by online reversed‐phase chromatography through a 120‐min gradient of 2.4–32% v/v acetonitrile with 0.1% v/v formic acid at a nanoflow rate of 250 nl min^−1. The eluted peptides were sprayed directly by electrospray ionization into the mass spectrometer. […]

SEC of FRed-L2H5-wt = assay type: physicochemical; conditions: Superdex 200 Increase 10/300 GL, PBS, 0.5 mL min^−1, UV280 and UV580
Description: Two hundred microliters of protein solution were injected using a 500 μL loop. Fractions of 1000 μL were collected. Based on the UV280 and UV580 elution profiles, fraction 15 containing monomeric […] concentrated using a 10K Amicon ultra 0.5 filter unit.

CC(C)(NC(=O)O[C@@H]1CN2CCC1CC2)c1csc(-c2ccc(F)cc2)n1 [venglustat]
clinical trial outcome [1]: changing GluCer levels alone may not be sufficient to positively affect disease progression

KFERQGSGSQVHFLREDDEAMDKAYQSGSGYGRKKRRQRRR [L2H5‐3xD]
effect on GCase activity, concentration dependence [2]: no effect on GCase activity
lysosomal GCase activity [3]: did not affect lysosomal GCase activity; also recorded: did not elevate lysosomal GCase activity

KFERQGSGSQVHFLREIIEAMLKAYQSGSGYGRKKRRQRRR-NH2 [L2H5‐wt]
solubility in MST measurement [4]: insufficient solubility of the peptide at higher concentrations
concentration tolerated (no increase in cell death, LDH release) ([5]; 0–20 µM, 72 h, CTRL‐2, PD‐1, PD‐2 fibroblasts, n = 3): up to 10 µM
LDH release at 20 µM ([5]; 20 µM, 72 h, CTRL‐2, PD‐1, PD‐2 fibroblasts, n = 3): strong increase in LDH release; also recorded: LDH activity in the medium was significantly increased
concentration at which cell toxicity starts ([5]; primary fibroblasts): ≥ 20 µM
L2H5‐wt‐specific tryptic peptides detected in LE fractions, 2 h (HEK 293T cells): peptides 2 and 3; also recorded: could be detected by mass spectrometry 2 h

QVHFLREIIEAMLKAYQ [FRed‐L2H5‐wt, L2H5‐wt peptide fused to FusionRed, expressed in E. coli]
aggregation in SEC profile (SEC of FRed-L2H5-wt): The earlier peak likely consists of aggregated protein
